The viability, T/C is the ratio of treated to control. The term IC50 denotes the concentration needed to halve the response being measured.

“And” between values parts separate entries of the source, which are not always exact repeats. Equal entries are not always repeated.

In this experiment the test system is 926638-142-R-J1-PDC complex spheroid viability. As to the kind of experiment: Anticancer human tumor 926638-142-R-J1-PDC patient-derived endometrial carcinoma cell line growth inhibition [POLQ]. Conditions: for viability, T/C: stronger effect = lower value. In outline:
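Three-cell-type spheroids modelling solid tumor plus stroma served as the readout system; POL inhibitors were tested individually and in combination, concentration ranges set by clinical Cmax where known.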

Where [1] appears, read: curve of first compound, second compound 0.0316 µM.
[2] abbreviates: curve of first compound, second compound 0.1 µM.
Where [3] appears, read: curve of first compound, second compound 0.316 µM.
Setting [4] is: curve of first compound, second compound 1 µM.
Where [5] appears, read: curve of first compound, second compound 3.16 µM.
Where [6] appears, read: curve of first compound, second compound 10 µM.
[7] abbreviates: second compound 0.0316 µM, first compound 0.0316 µM.
[8] abbreviates: second compound 0.0316 µM, first compound 0.1 µM.
[9] abbreviates: second compound 0.0316 µM, first compound 0.316 µM.
The mark [10] stands for this setting: second compound 0.0316 µM, first compound 1 µM.
Setting [11] is: second compound 0.1 µM, first compound 0.0316 µM.
The mark [12] stands for this setting: second compound 0.1 µM, first compound 0.1 µM.
Setting [13] is: second compound 0.1 µM, first compound 0.316 µM.
Where [14] appears, read: second compound 0.1 µM, first compound 1 µM.
Where [15] appears, read: second compound 0.316 µM, first compound 0.0316 µM.
[16] abbreviates: second compound 0.316 µM, first compound 0.1 µM.
Setting [17] is: second compound 0.316 µM, first compound 0.316 µM.
The mark [18] stands for this setting: second compound 0.316 µM, first compound 1 µM.
Where [19] appears, read: second compound 1 µM, first compound 0.0316 µM.
Where [20] appears, read: second compound 1 µM, first compound 0.1 µM.
Where [21] appears, read: second compound 1 µM, first compound 0.316 µM.
Where [22] appears, read: second compound 1 µM, first compound 1 µM.
[23] abbreviates: second compound 3.16 µM, first compound 0.0316 µM.
Setting [24] is: second compound 3.16 µM, first compound 0.1 µM.
The mark [25] stands for this setting: second compound 3.16 µM, first compound 0.316 µM.
The mark [26] stands for this setting: second compound 3.16 µM, first compound 1 µM.
[27] abbreviates: second compound 10 µM, first compound 0.0316 µM.
Setting [28] is: second compound 10 µM, first compound 0.1 µM.
Setting [29] is: second compound 10 µM, first compound 0.316 µM.
Where [30] appears, read: second compound 10 µM, first compound 1 µM.
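Further: spheroids exposed to drugs for one week before readout.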
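Wherever viability, T/C is given: percent viability relative to DMSO vehicle control wells set as 100%.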

For the molecule `Cn1ncnc1[C@H]1c2n[nH]c(=O)c3cc(F)cc(c23)N[C@@H]1c1ccc(F)cc1`, the viability, T/C is, setting by setting: (compound 0.000316 µM) 89.5% and 93.8% and 99.4%; (compound 0.001 µM) 85.5% and 91.6% and 86%; (compound 0.00316 µM) 76.9% and 94.5% and 82.1%; (compound 0.01 µM) 89.5% and 92.3% and 85.3%; (compound 0.0316 µM) 86.7% and 70% and 82.3%; (compound 0.1 µM) 67% and 72.8% and 67.5%. Further, where the note is “curve of compound”, the IC50 was > 100 nM.
As for `COc1cc(C2c3cc4c(cc3C(OC3OC5COC(C)OC5C(O)C3O)C3COC(=O)C23)OCO4)cc(OC)c1O` (configuration not stated), the viability, T/C runs as follows: (compound 0.0316 µM) 97.6% and 99% and 86.2%; (compound 0.1 µM) 79.6% (2×) and 77.2%; (compound 0.316 µM) 63.6% and 68.3% and 88.5%; (compound 1 µM) 67.9% and 82.5% and 80.7%; (compound 3.16 µM) 66.8% and 64.7% and 65.7%; (compound 10 µM) 65.4% and 55.2% and 55.3%. Moreover, where the note is “curve of compound”, the IC50 was > 10000 nM.
In the case of `CCc1c2c(nc3ccc(O)cc13)-c1cc3c(c(=O)n1C2)COC(=O)[C@]3(O)CC` + Nc1ccc(C#CCN(C(=O)Cc2ncc(C(F)(F)F)cc2C(F)(F)F)c2ccc(F)cc2)nn1, the IC50 runs as follows: under setting [1], 8.14 nM; under setting [2], 10.3 nM; under setting [3], 13.7 nM; under setting [4], 11.6 nM; under setting [5], 7.09 nM; under setting [6], 8.56 nM. The viability, T/C was 54.4% (second compound 0.0316 µM, first compound 0.00316 µM); 52.5% (second compound 0.0316 µM, first compound 0.01 µM); 32.8% under setting [7]; 27.6% under setting [8]; 15.2% under setting [9]; 11.2% under setting [10]. The viability, T/C runs as follows: (second compound 0.1 µM, first compound 0.00316 µM) 67.3%; (second compound 0.1 µM, first compound 0.01 µM) 49.8%; under setting [11], 36.5%; under setting [12], 24.9%; under setting [13], 17.3%; under setting [14], 10.2%. Also, the viability, T/C was 69.9% (second compound 0.316 µM, first compound 0.00316 µM); 56.9% (second compound 0.316 µM, first compound 0.01 µM); 33.7% under setting [15]; 24.6% under setting [16]; 14.9% under setting [17]; 10.4% under setting [18]. The viability, T/C (second compound 1 µM, first compound 0.00316 µM) was 60%; the viability, T/C (second compound 1 µM, first compound 0.01 µM) was 53.9%; the viability, T/C under setting [19] was 35.4%; the viability, T/C under setting [20] was 24.6%; the viability, T/C under setting [21] is 15.4%; the viability, T/C under setting [22] was 10.5%. Besides, the viability, T/C reads like this: (second compound 3.16 µM, first compound 0.00316 µM) 60.3%; (second compound 3.16 µM, first compound 0.01 µM) 46.7%; under setting [23], 30.6%; under setting [24], 20.6%; under setting [25], 17.6%; under setting [26], 7.92%. Moreover, the viability, T/C reads like this: (second compound 10 µM, first compound 0.00316 µM) 64.2%; (second compound 10 µM, first compound 0.01 µM) 47.4%; under setting [27], 34.5%; under setting [28], 23.1%; under setting [29], 15.3%; under setting [30], 10.2%.
Consider `CNCc1ccc(-c2[nH]c3cc(F)cc4c3c2CCNC4=O)cc1`, for which the viability, T/C (compound 0.0316 µM) was 93.7% and 109% and 101%; the viability, T/C (compound 0.1 µM) was 89.6% and 97.2% and 79.2%; the viability, T/C (compound 0.316 µM) was 92.8% (2×) and 87.7%; the viability, T/C (compound 1 µM) was 77.7% and 97.3% and 82.6%; the viability, T/C (compound 3.16 µM) was 86.7% and 87.1% and 95.7%; the viability, T/C (compound 10 µM) was 78% and 80.2% and 84.1%. For the same molecule, the IC50 (curve of compound) was > 10000 nM.
Turning to `CC(=O)O[C@H]1C(=O)[C@@]2(C)[C@H]([C@H](OC(=O)c3ccccc3)[C@]3(O)C[C@H](OC(=O)[C@H](O)[C@@H](NC(=O)c4ccccc4)c4ccccc4)C(C)=C1C3(C)C)[C@]1(OC(C)=O)CO[C@@H]1C[C@@H]2O`, the viability, T/C by setting is: (compound 0.00949 µM) 82.5% and 94% and 68.4%; (compound 0.03 µM) 63.2% and 60.2% and 77.5%; (compound 0.0949 µM) 57.1% and 53.2% and 62.2%; (compound 0.3 µM) 55% and 53.9% and 68.9%; (compound 0.949 µM) 61.5% and 52.6% and 56%; (compound 3 µM) 44.7% and 45.7% and 57.5%. For the same molecule, the IC50 (curve of compound) was > 3000 nM.
In the case of `COc1cccc2c1C(=O)c1c(O)c3c(c(O)c1C2=O)CC(O)(C(=O)CO)CC3OC1CC(N)C(O)C(C)O1` (configuration not stated) + Cc1cccc(N(C)C(=O)C2C(O)CCN2c2nc(C)cc(C(F)(F)F)c2C#N)c1, the half-inhibitory concentration (IC50) came out at 133 nM under setting [1]; 144 nM under setting [2]; 138 nM under setting [3]; 102 nM under setting [4]; 115 nM under setting [5]; 124 nM under setting [6]. Besides, the viability, T/C under setting [7] was 76.8%; the viability, T/C under setting [8] is 59.4%; the viability, T/C under setting [9] is 21%; the viability, T/C under setting [10] was 2.89%; the viability, T/C (second compound 0.0316 µM, first compound 3.16 µM) is 0.19%; the viability, T/C (second compound 0.0316 µM, first compound 10 µM) is 0.26%. The viability, T/C by setting is: under setting [11], 68.6%; under setting [12], 65%; under setting [13], 18.5%; under setting [14], 3.26%; (second compound 0.1 µM, first compound 3.16 µM) 0.2%; (second compound 0.1 µM, first compound 10 µM) 0.33%. For the same molecule, the viability, T/C reads like this: under setting [15], 79.3%; under setting [16], 61.9%; under setting [17], 19%; under setting [18], 2.18%; (second compound 0.316 µM, first compound 3.16 µM) 0.15%; (second compound 0.316 µM, first compound 10 µM) 0.25%. The viability, T/C reads like this: under setting [19], 71.6%; under setting [20], 50.4%; under setting [21], 17.4%; under setting [22], 2.2%; (second compound 1 µM, first compound 3.16 µM) 0.14%; (second compound 1 µM, first compound 10 µM) 0.24%. In addition, the viability, T/C reads like this: under setting [23], 82.1%; under setting [24], 54.8%; under setting [25], 15.1%; under setting [26], 2.08%; (second compound 3.16 µM, first compound 3.16 µM) 0.25%; (second compound 3.16 µM, first compound 10 µM) 0.32%. The viability, T/C reads like this: under setting [27], 70.5%; under setting [28], 58.4%; under setting [29], 14.2%; under setting [30], 1.62%; (second compound 10 µM, first compound 3.16 µM) 0.26%; (second compound 10 µM, first compound 10 µM) 0.24%.

These data come from PubChem BioAssay AID1963826 (Molecular Pharmacology Branch, DTP, NCI, 2024).
